Target: T1, human Fatty Acid Synthase (Homo sapiens, UniProt P49327)
T1 construct: made in house
Experiment: Human FAS enzyme assay (decrease in NADPH fluorescence)
Type: biochemical
Details: % inhibition at a concentration of 100 μmolar
Method in brief: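 In-house human FAS was preincubated with compound and NADPH for 15 min at room temperature in 0.1 M Tris pH 7.5 with EDTA, glutathione and BSA. Malonyl CoA and acetyl CoA (500 μM and 150 μM in the added mix) were then added for 60 min. IC50 came from time-zero-subtracted NADPH fluorescence (340/460 nm).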

T1 sequence (P49327 whole entry): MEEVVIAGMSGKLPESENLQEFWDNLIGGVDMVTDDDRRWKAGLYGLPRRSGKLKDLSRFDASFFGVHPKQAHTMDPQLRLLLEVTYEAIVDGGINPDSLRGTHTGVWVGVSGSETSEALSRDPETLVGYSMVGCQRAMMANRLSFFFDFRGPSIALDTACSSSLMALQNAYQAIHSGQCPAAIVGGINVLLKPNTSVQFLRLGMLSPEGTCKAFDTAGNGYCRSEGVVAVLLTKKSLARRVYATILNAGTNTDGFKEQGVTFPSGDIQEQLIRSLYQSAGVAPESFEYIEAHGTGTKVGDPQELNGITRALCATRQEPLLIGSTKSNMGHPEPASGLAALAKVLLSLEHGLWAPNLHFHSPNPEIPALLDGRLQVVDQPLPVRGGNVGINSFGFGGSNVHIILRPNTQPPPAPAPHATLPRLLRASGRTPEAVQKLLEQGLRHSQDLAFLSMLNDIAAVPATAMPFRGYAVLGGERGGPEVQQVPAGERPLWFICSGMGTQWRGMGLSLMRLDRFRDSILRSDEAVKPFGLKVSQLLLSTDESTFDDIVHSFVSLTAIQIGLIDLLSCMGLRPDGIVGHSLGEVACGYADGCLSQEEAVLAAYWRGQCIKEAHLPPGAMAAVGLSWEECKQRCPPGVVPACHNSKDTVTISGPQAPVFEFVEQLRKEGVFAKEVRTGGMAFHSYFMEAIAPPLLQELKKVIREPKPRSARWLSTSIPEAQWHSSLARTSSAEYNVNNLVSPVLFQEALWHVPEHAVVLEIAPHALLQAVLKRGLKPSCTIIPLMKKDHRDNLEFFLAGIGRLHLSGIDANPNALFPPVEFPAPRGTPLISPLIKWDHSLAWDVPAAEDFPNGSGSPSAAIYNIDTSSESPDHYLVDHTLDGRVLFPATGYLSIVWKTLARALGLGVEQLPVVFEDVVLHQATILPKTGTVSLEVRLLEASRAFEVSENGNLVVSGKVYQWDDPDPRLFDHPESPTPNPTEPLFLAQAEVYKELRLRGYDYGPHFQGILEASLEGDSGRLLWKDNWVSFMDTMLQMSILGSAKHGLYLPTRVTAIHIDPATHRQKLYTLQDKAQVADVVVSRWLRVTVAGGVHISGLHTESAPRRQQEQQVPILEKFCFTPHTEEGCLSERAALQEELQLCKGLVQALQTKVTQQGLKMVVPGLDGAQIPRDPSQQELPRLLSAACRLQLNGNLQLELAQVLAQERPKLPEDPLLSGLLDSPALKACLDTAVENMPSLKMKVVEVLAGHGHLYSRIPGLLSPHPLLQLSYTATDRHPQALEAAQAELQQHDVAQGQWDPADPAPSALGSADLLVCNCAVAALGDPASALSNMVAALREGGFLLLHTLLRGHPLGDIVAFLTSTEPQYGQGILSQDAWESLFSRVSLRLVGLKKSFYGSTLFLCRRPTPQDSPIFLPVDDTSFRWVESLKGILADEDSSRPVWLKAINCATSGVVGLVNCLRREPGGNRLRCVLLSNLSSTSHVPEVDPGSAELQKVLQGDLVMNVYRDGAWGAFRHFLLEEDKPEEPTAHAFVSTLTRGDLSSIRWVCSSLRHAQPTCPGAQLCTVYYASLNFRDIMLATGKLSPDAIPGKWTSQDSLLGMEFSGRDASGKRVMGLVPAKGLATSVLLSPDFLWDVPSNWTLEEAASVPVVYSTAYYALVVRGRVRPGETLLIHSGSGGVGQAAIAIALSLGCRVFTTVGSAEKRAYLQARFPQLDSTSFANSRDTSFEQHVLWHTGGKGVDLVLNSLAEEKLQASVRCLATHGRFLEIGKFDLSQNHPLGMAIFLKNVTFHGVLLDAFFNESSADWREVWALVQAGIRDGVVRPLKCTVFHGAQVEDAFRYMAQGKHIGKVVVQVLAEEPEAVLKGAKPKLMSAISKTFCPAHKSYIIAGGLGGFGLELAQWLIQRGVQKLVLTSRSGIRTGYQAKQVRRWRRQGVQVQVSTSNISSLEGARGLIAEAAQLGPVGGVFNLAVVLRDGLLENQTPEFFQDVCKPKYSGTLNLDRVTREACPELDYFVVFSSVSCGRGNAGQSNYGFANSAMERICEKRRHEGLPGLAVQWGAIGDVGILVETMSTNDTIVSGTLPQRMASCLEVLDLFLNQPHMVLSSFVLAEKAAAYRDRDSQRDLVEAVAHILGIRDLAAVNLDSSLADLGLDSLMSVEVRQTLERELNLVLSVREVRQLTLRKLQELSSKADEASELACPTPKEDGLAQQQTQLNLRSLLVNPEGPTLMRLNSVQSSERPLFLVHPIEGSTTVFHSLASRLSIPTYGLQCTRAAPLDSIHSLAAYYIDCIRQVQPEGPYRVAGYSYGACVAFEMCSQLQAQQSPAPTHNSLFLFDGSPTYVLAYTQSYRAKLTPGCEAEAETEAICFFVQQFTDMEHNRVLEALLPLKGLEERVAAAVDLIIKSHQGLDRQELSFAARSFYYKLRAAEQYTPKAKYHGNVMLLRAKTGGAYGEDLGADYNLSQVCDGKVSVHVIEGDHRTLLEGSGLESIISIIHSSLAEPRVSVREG

Compound | inhibition at 100 µM
COc1cc(CNC(=O)Nc2cc(C(=O)N3CCC(c4ccc(C#N)cc4)CC3)ccc2C)cc(OC)c1OC [Example 44, 1-[5-[4-(4-cyanophenyl)piperidine-1-carbonyl]-2-methyl-phenyl]-3-[(3,4,5-trimethoxyphenyl)methyl]urea] | 87.9%
Cc1cc(C)c(C(=O)N2CCC(c3ccc(C#N)cc3)CC2)cc1NC(=O)NC1CC1 [Example 411, 1-[5-[4-(4-cyanophenyl)piperidine-1-carbonyl]-2,4-dimethylphenyl]-3-cyclopropylurea] | 90%
Cc1cc(C)n(CCNC(=O)Nc2cc(C(=O)N3CCC(c4ccc(C#N)cc4)CC3)ccc2C)n1 [Example 76, 1-[5-[4-(4-cyanophenyl)piperidine-1-carbonyl]-2-methyl-phenyl]-3-[2-(3,5-dimethylpyrazol-1-yl)ethyl]urea] | 97.5%
C[S+]([O-])c1ccc(C(=O)N2CCC(c3ccc(C#N)cc3)CC2)cc1NC(=O)NCc1ccccc1 (stereo not shown) [Example 387, 3-benzyl-1-[5-[4-(4-cyanophenyl)piperidine-1-carbonyl]-2-methylsulfinylphenyl]urea] | 72.9%
COc1ncccc1-c1cc(CNC(=O)Nc2cc(C(=O)N3CCC(c4ccc(C#N)cc4)CC3)ccc2C)on1 [Example 251, 1-[5-[4-(4-cyanophenyl)piperidine-1-carbonyl]-2-methyl-phenyl]-3-[[3-(2-methoxypyridin-3-yl)-1,2-oxazol-5-yl]methyl]urea] | 88.4%
Cc1ccc(NC(=O)N[C@@H](C)c2ccccc2)cc1C(=O)N1CCC(c2ccc(C#N)cc2)CC1 [Example 38, 3-[3-[4-(4-cyanophenyl)piperidine-1-carbonyl]-4-methyl-phenyl]-1-[(1S)-1-phenylethyl]urea] | 76.6%
Cc1ccc(C(=O)N2CCC(c3ccc(C#N)cc3)CC2)cc1NC(=O)NCc1cccc(N)c1 [Example 85, 3-[(3-aminophenyl)methyl]-1-[5-[4-(4-cyanophenyl)piperidine-1-carbonyl]-2-methyl-phenyl]urea] | 93.6%
Cc1ccc(C(=O)N2CCC(c3ccc(Cl)cc3)CC2)cc1NC(=O)NCc1ccccn1 [Example 355, 1-[5-[4-(4-chlorophenyl)piperidine-1-carbonyl]-2-methyl-phenyl]-3-(pyridin-2-ylmethyl)urea] | 82.2%
Cc1ccc(C(=O)N2CCC(c3ccc(C#N)cc3)CC2)cc1NC(=O)NC1CCCNC1=O (racemic) [Example 236, (RS)-1-[5-[4-(4-cyanophenyl)piperidine-1-carbonyl]-2-methyl-phenyl]-3-(2-oxo-3-piperidyl)urea] | 77.1%
CCNC(=O)Nc1ccc(C)c(C(=O)N2CCC(c3ccc(C#N)cc3)CC2)c1 [Example 19, 3-[3-[4-(4-cyanophenyl)piperidine-1-carbonyl]-4-methyl-phenyl]-1-ethyl-urea] | 79.9%
Cc1ccc(C(=O)N2CCC(c3ccc(C#N)cc3)CC2)cc1NC(=O)NCCNC(=O)c1cnoc1C [Example 119, N-[2-[[5-[4-(4-cyanophenyl)piperidine-1-carbonyl]-2-methyl-phenyl]carbamoylamino]ethyl]-5-methyl-1,2-oxazole-4-carboxamide] | 89.2%
N#Cc1ccc(C2CCN(C(=O)c3ccc(F)c(NC(=O)NCc4ccccc4)c3)CC2)cc1 [Example 8, 3-benzyl-1-[5-[4-(4-cyanophenyl)piperidine-1-carbonyl]-2-fluoro-phenyl]urea] | 82.6%
Cc1ccc(C(=O)N2CCC(c3ccc(C#N)cc3)CC2)cc1NC(=O)NC1CN(S(=O)(=O)N(C)C)C1 [Example 303, 1-[5-[4-(4-cyanophenyl)piperidine-1-carbonyl]-2-methyl-phenyl]-3-[1-(dimethylsulfamoyl)azetidin-3-yl]urea] | 93.5%
Cc1ccc(NC(=O)NCc2ccccn2)cc1C(=O)N1CCC(c2ccc(C#N)cc2)CC1 [Example 414, 1-[3-[4-(4-cyanophenyl)piperidine-1-carbonyl]-4-methylphenyl]-3-(pyridin-2-ylmethyl)urea] | 83.6%
Cc1ccc(C(=O)N2CCC(c3ccc(F)cc3)CC2)cc1NC(=O)NC1CCN(C(=O)OC(C)(C)C)C1 (stereo not shown) [Example 343, tert-butyl 3-[[5-[4-(4-fluorophenyl)piperidine-1-carbonyl]-2-methyl-phenyl]carbamoylamino]pyrrolidine-1-carboxylate] | 93.6%
Cc1ccc(NC(=O)NCCCS(C)(=O)=O)cc1C(=O)N1CCC(c2ccc(C#N)cc2)CC1 [Example 278, 1-[3-[4-(4-cyanophenyl)piperidine-1-carbonyl]-4-methyl-phenyl]-3-(3-methylsulfonylpropyl)urea] | 95.8%
Cc1ccc(C(=O)N2CCC(c3ccc(C#N)cc3)CC2)cc1NC(=O)NCCc1cccc(F)c1 [Example 68, 1-[5-[4-(4-cyanophenyl)piperidine-1-carbonyl]-2-methyl-phenyl]-3-[2-(3-fluorophenyl)ethyl]urea] | 102%
CNC(=O)c1ccc(C2CCN(C(=O)c3ccc(C)c(NC(=O)NC(C)C)c3)CC2)cc1 [Example 329, N-methyl-4-[1-[4-methyl-3-(propan-2-ylcarbamoylamino)benzoyl]-4-piperidyl]benzamide] | 84.3%

The next lines start with the values.

inhibition at 100 µM | Compound
79% | Cc1ccc(C(=O)N2CCC(c3ccc(C#N)cc3)CC2)cc1NC(=O)NCCNC(=O)CC(=O)O [Example 104A, 2-[2-[[5-[4-(4-cyanophenyl)piperidine-1-carbonyl]-2-methyl-phenyl]carbamoylamino]ethylcarbamoyl]acetic acid]
67.4% | CC(C)NC(=O)Nc1cc(C(=O)N2CCC(c3ccc(C#N)cc3)CC2)ccc1[S+](C)[O-] (stereo not shown) [Example 386, 3-[5-[4-(4-cyanophenyl)piperidine-1-carbonyl]-2-methylsulfinylphenyl]-1-propan-2-ylurea]
91.2% | Cc1ccc(C(=O)N2CCC(c3ccc(C#N)cc3)CC2)cc1NC(=O)NCc1cc[nH]n1 [Example 289, 1-[5-[4-(4-cyanophenyl)piperidine-1-carbonyl]-2-methyl-phenyl]-3-(1H-pyrazol-3-ylmethyl)urea]
85.6% | Cc1ccc(C(=O)N2CCC(c3ccc(C#N)cc3)CC2)cc1NC(=O)NCCOCCO [Example 189, 1-[5-[4-(4-cyanophenyl)piperidine-1-carbonyl]-2-methyl-phenyl]-3-[2-(2-hydroxyethoxy)ethyl]urea]
100% | Cc1ccc(C(=O)N2CCC(c3ccc(C#N)cc3)CC2)cc1NC(=O)NCc1nccs1 [Example 248, 1-[5-[4-(4-cyanophenyl)piperidine-1-carbonyl]-2-methyl-phenyl]-3-(1,3-thiazol-2-ylmethyl)urea]
78.6% | Cc1ccc(C(=O)N2CCC(c3ccc(C#N)cc3)CC2)cc1NC(=O)NC1(C)CC1 [Example 389, 1-[5-[4-(4-cyanophenyl)piperidine-1-carbonyl]-2-methylphenyl]-3-(1-methylcyclopropyl)-urea]
91% | CCS(=O)(=O)NC(C)(C)CNC(=O)Nc1cc(C(=O)N2CCC(c3ccc(C#N)cc3)CC2)ccc1C [Example 204, 3-[5-[4-(4-cyanophenyl)piperidine-1-carbonyl]-2-methyl-phenyl]-1-[2-(ethylsulfonylamino)-2-methyl-propyl]urea]
94.2% | CC(=O)NCC(C)NC(=O)Nc1cc(C(=O)N2CCC(c3ccc(C#N)cc3)CC2)ccc1C (stereo not shown) [Example 232, N-[2-[[5-[4-(4-cyanophenyl)piperidine-1-carbonyl]-2-methyl-phenyl]carbamoylamino]propyl]acetamide]
86.4% | Cc1ccc(C(=O)N2CCC(c3ccc(C#N)cc3)CC2)cc1NC(=O)NC(CO)CO [Example 186, 1-[5-[4-(4-cyanophenyl)piperidine-1-carbonyl]-2-methyl-phenyl]-3-(1,3-dihydroxypropan-2-yl)urea]
96.1% | Cc1ccc(C(=O)N2CCC(c3ccc(C#N)cc3)CC2)cc1NC(=O)NCCNS(=O)(=O)C(C)C [Example 122, 1-[5-[4-(4-cyanophenyl)piperidine-1-carbonyl]-2-methyl-phenyl]-3-[2-(propan-2-ylsulfonylamino)ethyl]urea]
96.1% | Cc1ccc(C(=O)N2CCC(c3ccc(C#N)cc3)CC2)cc1NC(=O)NCC1CCS(=O)(=O)C1 (stereo not shown) [Example 80, 1-[5-[4-(4-cyanophenyl)piperidine-1-carbonyl]-2-methyl-phenyl]-3-[(1,1-dioxothiolan-3-yl)methyl]urea]
92.4% | CCS(=O)(=O)NCCCNC(=O)Nc1cc(C(=O)N2CCC(c3ccc(C#N)cc3)CC2)ccc1C [Example 216, 3-[5-[4-(4-cyanophenyl)piperidine-1-carbonyl]-2-methyl-phenyl]-1-[3-(ethylsulfonylamino)propyl]urea]
90.3% | Cc1ccc(C(=O)N2CCC(c3ccc(C#N)cc3)CC2)cc1NC(=O)N[C@H](C)c1ccccc1 [Example 106, 1-[5-[4-(4-cyanophenyl)piperidine-1-carbonyl]-2-methyl-phenyl]-3-[(1R)-1-phenylethyl]urea]
91.9% | Cc1ccc(C(=O)N2CCC(c3ccc(C#N)cc3)CC2)cc1NC(=O)NCCNC(=O)OC(C)(C)C [Example 102, tert-butyl N-[2-[[5-[4-(4-cyanophenyl)piperidine-1-carbonyl]-2-methyl-phenyl]carbamoylamino]ethyl]carbamate]
93.9% | Cc1ccc(C(=O)N2CCC(c3ccc(C#N)cc3)CC2)cc1NC(=O)N[C@H]1CC[C@H](N)C1 [Example 318, 3-[(1S,3S)-3-aminocyclopentyl]-1-[5-[4-(4-cyanophenyl)piperidine-1-carbonyl]-2-methyl-phenyl]urea]
80.3% | Cc1ccc(C(=O)N2CCC(c3ccc(C#N)cc3)CC2)cc1NC(=O)NCCCCN(C)C [Example 142, 1-[5-[4-(4-cyanophenyl)piperidine-1-carbonyl]-2-methyl-phenyl]-3-(4-dimethylaminobutyl)urea]

— patent US20090118332A1, “Therapeutic Agents - 551” (AstraZeneca AB, priority 2006, published 2009)
